The results in this text go back to patent US20240279217A1, “Heterocyclic compounds for the treatment of tuberculosis” (TECNIMEDE - SOCIEDADE TÉCNICO-MEDICINAL, SA, priority 2021, published 2024).

The structures appear in SMILES notation.

A short description of data set [1]: Distribution coefficient (Log D) determination, octanol/PBS pH 7.4. In kind it is physicochemical. The note with it: octanol / phosphate buffer saline pH 7.4. The protocol: In an embodiment, distribution coefficient (Log D) determination assay was carried out. Test compounds were incubated in Eppendorf-type polypropylene microtubes in triplicates: a 5 μL aliquot of a 10 mM DMSO stock of each test compound were added into the previously mutually saturated mixture containing 500 μL of phosphate buffer saline (pH 7.4) and 500 μL of octanol. The solution was allowed to mix in a rotator for 1 hour at 30 rpm. Phase separation was assured by centrifugation. The octanol phase was diluted 100-fold with 40% acetonitrile in water for analysis, and aqueous phase was analysed without dilution. Mebendazole was used as a reference compound. All samples (both phases) were analysed in a Shimadzu VP HPLC system with a reverse phase column, coupled with tandem mass spectrometer API 3000 (PE Sciex). The TurbolonSpray ion source was used in positive ion mode. Acquisition and analysis of the data were performed using Analyst 1.5.2 software. Distribution coefficients of the tested compounds were calculated as the logarithm of the partition ratios (D) in both solvents, according to the equation below.
[formula] • where: So—peak area of the compound in octanol phase • Sp—peak area of the compound in phosphate buffer saline phase

Data set [2] is described as follows: Stability in human plasma (PS) assay. The note with it: 37° C., 120 minutes, read-out: t1/2 (min) hPS. It counts as in vitro ADME. The method, then:
In an embodiment, stability in human plasma (PS) assay was carried out. Test compounds (1 μM, final DMSO concentration 1%) were incubated in 5 aliquots of 70 μL each (one for each time point), in duplicates, at 37° C. with 100 rpm orbital shaking. Five time points over a duration 120 minutes have been analysed. Two reference compounds were analysed in parallel. The reactions were stopped by the addition of 420 μL of acetonitrile-water mixture (90:10) and subsequent plasma proteins sedimentation were achieved by centrifugation. Supernatants were analysed in a Shimadzu VP HPLC system with a reverse phase column, coupled with a tandem mass spectrometer API 3000 (PE Sciex). Both the positive and negative ion modes of the TurbolonSpray ion source were used. Acquisition and analysis of the data were performed using Analyst 1.5.2 software (PE Sciex). The percentage of the test compounds remaining after incubation in plasma and their half-lives (T1/2) were calculated.

Data set [3] in a line: Human plasma protein binding (PPB) assay, equilibrium dialysis. In kind it is in vitro ADME. The note with it: non-diluted plasma, pH 7.4, percentage of plasma protein bounded compound, 5 hours dialysis, read-out: hPPB. The protocol:
In an embodiment, human plasma protein binding (PPB) assay was carried out. The assay was performed in a multiple-use 96-well dialysis unit (HTD96b dialyzer). Each individual well unit consisted of 2 chambers separated by a vertically aligned dialysis membrane of predetermined pore size (MWCO 12-14 kDa). 120 μl of non-diluted plasma spiked with the compound (1 μM, 1% final DMSO concentration) was added to one chamber and the same volume of phosphate buffer saline pH 7.4 to the other chamber. HTD96b dialyzer was covered with adhesive sealing film and incubated at 37° C. and 100 rpm orbital shaking for 5 hours. Verapamil was also evaluated in parallel as reference compound. For sample preparation, an aliquot of the content of each chamber was mixed with the same volume of the blank opposite matrix. […] Supernatants were analysed using a Shimadzu VP HPLC system with a reverse phase column, coupled with a tandem mass spectrometer API 3000 (PE Sciex). […]
The percentage of plasma protein bounded compound and its recovery were calculated using the equations below: […]
The percentage of plasma protein bounded compound and its recovery were calculated using the values obtained for each compound in the quantification of the 3 samples (in buffer, plasma and standard solution).

With `COc1cccc2ccc(N3CCC(c4nc(-c5ccc(OC(F)(F)F)cc5)no4)CC3)nc12` [Compound 3, 5-(1-(8-methoxyquinolin-2-yl)piperidin-4-yl)-3-(4-(trifluoromethoxy)phenyl)-1,2,4-oxadiazole], the logD in data set [1] came to 5.34. Also, the half-life at 1 μM in data set [2] is more than 240 min. Besides, in data set [3], the fraction unbound at 5 h, 1 μM is not above 0.001.
